Read-outs that look alike come from different tables or passages of the source.
How the values were obtained:
cardiac cells = conditions: cited from earlier work
patients = conditions: cited from earlier work
[1] = test system: ventricular arrhythmias induced by two-stage ligation of the left anterior descending coronary artery (Harris dog); assay: Antiarrhythmic activity by coronary ligation in the Harris dog model (i.v. infusion); assay type: in vivo, dog (adult mongrel); conditions: Canis lupus familiaris, read-out: Antiarrhythmic ED in Harris Dog
Description: The following examples describe the pharmacological evaluation of the compounds made in accordance with the present invention. In particular, these examples describe the evaluation of antiarrhythmic activity by coronary ligation in the well known Harris dog model. Ventricular arrhythmias were induced in adult mongrel dogs (10-15 kg) of either sex by two-stage ligation of the left anterior descending coronary artery. […] The test compound in saline was infused intravenously at a cumulative rate of […] to 1.2 mg/kg/min (base) unitl normal sinus rhythm or toxicity occurred. Normal sinus rhythm was defined as 90-100% normal complexes over a 5 min period.

Guinea Pig Ileum = assay: In vitro evaluation of anticholinergic activity in the isolated guinea pig ileum; design: species or system guinea pig (male Hartley); conditions: Cavia porcellus, read-out: Anticholinergic Inhibition of Guinea Pig Ileum (% inhibition at 4 mg/L)
Protocol: The following examples describe the in vitro evaluation of anticholinergic activity in the isolated guinea pig ileum. Fasted, male Hartley guinea pigs (300-400 g) were killed by a blow to the head. […] One end of the ileal strip was impaled onto a platinum wire electrode; and the other end was tied to a stationary glass rod. Basal tension was set at 0.1-0.3 g and peak developed tension in response to field stimulation (100-150 V, 10 msec pulse duration, 0.2 Hz) was measured with a tension transducer.

[2] = test system: ventricular arrhythmias induced by ouabain (Ouabain dog); assay: Antiarrhythmic activity in the Ouabain dog model (i.v. infusion); assay type: in vivo; conditions: Canis lupus familiaris, read-out: Antiarrhythmic ED in Ouabain Dog
Protocol: The following examples describe the pharmacological evaluation of the compounds in accordance with the present invention. In particular, these examples describe the evaluation of antiarrhythmic activity in the Oubain dog model. […] The test compound was infused intravenously in saline at a rate of about 0.3 to about 5 mg/kg/min until normal sinus rhythm or toxicity occurred. Normal sinus rhythm was defined as 90-100% normal complexes over a 5 minute period.

[3] = Harris dog, IV infusion, ED is the effective dose required to sustain normal sinus rhythm
[4] = 4 mg/L, inhibition of field-stimulated contractile tension
[5] = Ouabain dog, IV infusion, ED is the effective dose required to sustain normal sinus rhythm
[6] = administered to patients for the management of arrhythmias

For `C=C[C@H]1C[N@@]2CC[C@H]1C[C@@H]2[C@@H](O)c1ccnc2ccc(OC)cc12` (stereo in doubt) [Quinidine, 6-methoxy-α-(5'-vinyl-2-quinuclidinyl)-4-quindinemethanol], which “anticholinergic activity (in words, background)” value (cardiac cells) is on record?
Its value is “indirect anticholinergic actions”.

And the “effect on impulse formation, conduction velocity and refractory period of cardiac cells” value (cardiac cells)?
Its value is “depress impulse formation, slow conduction velocity, and increase the duration of the refractory period of cardiac cells”.

And the “adverse side-effects in patients” value (patients; human, in vivo)?
Its value is “cardiotoxicity, diarrhea, nausea, vomiting, fever, hypertension and depression of myocardial contractility”.

What about the minimal effective dose [1, 3] of the same molecule?
Its minimal effective dose is 10.1 mg/kg.

And the inhibition at 4 µg/mL (Guinea Pig Ileum; [4])?
The inhibition at 4 µg/mL was 62%.

What does the source list for `Oc1c(CN2CCCC2)cc(Nc2ncnc3ccccc23)cc1CN1CCCC1` [Changrolin, 4-[3',5'-bis[N-pyrrolidinylmethyl]-4'-hydroxyanilino]quinazoline, reference compound]?
anticholinergic activity (in words, background) (cardiac cells): substantial anticholinergic activity; minimal effective dose [2, 5]: 5.5 mg/kg; adverse side-effects in patients (patients; [6]): skin discoloration in some patients; antiarrhythmic effectiveness (in words, background) (patients; human, in vivo): effective antiarrhythmic agent; minimal effective dose [1, 3]: 10.3 mg/kg; inhibition at 4 µg/mL (Guinea Pig Ileum; [4]): 43%

What does the source list for `CC(C)N(CCC(C(N)=O)(c1ccccc1)c1ccccn1)C(C)C` (stereo not drawn) [Disopyramide, α[2-(diisopropylamino)-ethyl]α-phenol-2-pyridineacetamide, reference compound]?
anticholinergic activity (in words, background) (cardiac cells): indirect anticholinergic actions; effect on impulse formation, conduction velocity and refractory period of cardiac cells (cardiac cells): depress impulse formation, slow conduction velocity, and increase the duration of the refractory period of cardiac cells; minimal effective dose ([2]; iv): 4.4 mg/kg; adverse side-effects in patients (patients; [6]): dryness of the mouth, blurred vision, constipation, and urinary retention, and depression of myocardial contractility; minimal effective dose ([1]; iv): 6.8 mg/kg; inhibition at 4 µg/mL (Guinea Pig Ileum): 81%

What does the source list for `O=C(Nc1cc(CN2CCCC2)c(O)c(CN2CCCC2)c1)c1ccccc1` [Example III, N-benzoyl-3,5-bis(N-pyrrolidinylmethyl)-4-hydroxyaniline]?
minimal effective dose [2, 5]: 3.4 mg/kg; minimal effective dose [1, 3]: 5 mg/kg; inhibition at 4 µg/mL (Guinea Pig Ileum; [4]): 35%
